In paper PMC11864979, “First-in-class ultralong-target-residence-time p38α inhibitors as a mitosis-targeted therapy for colorectal cancer” (Nature Cancer, 2025):
Read-outs that look alike come from different tables or passages of the source.

Tests used:
Assay in all cases: selectivity profiling in a panel of 340 wild-type kinases (Reaction Biology Europe)
Format in all cases: binding
340 wild-type kinases [1] = molecular target: T1, 340 wild-type kinases (Homo sapiens, UniProt O14757)
T1 construct: purchased Reaction Biology Europe
T1 sequence (O14757 1-476): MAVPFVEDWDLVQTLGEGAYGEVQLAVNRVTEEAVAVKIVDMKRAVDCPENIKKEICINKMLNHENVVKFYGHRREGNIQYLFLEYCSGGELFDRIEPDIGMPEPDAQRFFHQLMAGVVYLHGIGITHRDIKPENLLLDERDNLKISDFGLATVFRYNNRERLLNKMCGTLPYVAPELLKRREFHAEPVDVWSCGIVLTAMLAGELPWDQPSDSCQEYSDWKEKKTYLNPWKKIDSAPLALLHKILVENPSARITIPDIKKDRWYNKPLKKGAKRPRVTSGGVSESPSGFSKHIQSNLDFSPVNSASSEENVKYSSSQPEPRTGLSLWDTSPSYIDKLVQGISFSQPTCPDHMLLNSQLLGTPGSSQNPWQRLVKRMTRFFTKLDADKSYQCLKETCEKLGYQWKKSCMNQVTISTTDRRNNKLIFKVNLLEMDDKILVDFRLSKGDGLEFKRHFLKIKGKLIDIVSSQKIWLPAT

340 wild-type kinases [2] = molecular target: T2, 340 wild-type kinases (Homo sapiens, UniProt O75716)
T2 construct: purchased Reaction Biology Europe

340 wild-type kinases [3] = molecular target: T3, 340 wild-type kinases (Homo sapiens, UniProt O95819)
T3 construct: purchased Reaction Biology Europe

340 wild-type kinases [4] = molecular target: T4, 340 wild-type kinases (Homo sapiens, UniProt P29320)
T4 construct: purchased Reaction Biology Europe
T4 sequence (P29320 21-983): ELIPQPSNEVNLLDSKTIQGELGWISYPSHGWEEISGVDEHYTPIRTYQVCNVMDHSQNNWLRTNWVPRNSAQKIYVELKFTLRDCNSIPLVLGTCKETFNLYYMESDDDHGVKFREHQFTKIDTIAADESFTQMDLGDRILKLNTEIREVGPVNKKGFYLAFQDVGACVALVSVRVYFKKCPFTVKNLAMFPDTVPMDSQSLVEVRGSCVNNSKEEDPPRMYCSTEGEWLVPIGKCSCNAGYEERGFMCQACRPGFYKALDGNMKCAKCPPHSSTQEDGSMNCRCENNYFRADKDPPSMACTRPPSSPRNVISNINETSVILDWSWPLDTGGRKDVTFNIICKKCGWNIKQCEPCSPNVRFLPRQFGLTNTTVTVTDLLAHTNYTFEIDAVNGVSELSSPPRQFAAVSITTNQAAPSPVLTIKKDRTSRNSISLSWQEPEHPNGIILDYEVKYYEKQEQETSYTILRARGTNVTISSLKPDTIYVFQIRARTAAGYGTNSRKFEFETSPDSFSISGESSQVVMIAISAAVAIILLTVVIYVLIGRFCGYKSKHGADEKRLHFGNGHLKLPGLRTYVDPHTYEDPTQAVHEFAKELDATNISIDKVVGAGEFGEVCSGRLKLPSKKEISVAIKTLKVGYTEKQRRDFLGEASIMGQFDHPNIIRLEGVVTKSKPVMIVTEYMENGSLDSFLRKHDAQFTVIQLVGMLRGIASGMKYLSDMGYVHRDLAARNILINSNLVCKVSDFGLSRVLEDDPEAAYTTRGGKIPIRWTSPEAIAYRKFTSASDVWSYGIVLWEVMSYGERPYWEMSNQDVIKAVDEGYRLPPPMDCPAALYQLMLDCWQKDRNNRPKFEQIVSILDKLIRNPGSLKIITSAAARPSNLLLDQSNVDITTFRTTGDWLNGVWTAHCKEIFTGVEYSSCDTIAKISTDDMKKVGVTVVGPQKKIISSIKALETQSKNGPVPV

340 wild-type kinases [5] = molecular target: T5, 340 wild-type kinases (Homo sapiens, UniProt P53350)
T5 construct: purchased Reaction Biology Europe

340 wild-type kinases [6] = molecular target: T6, 340 wild-type kinases (Homo sapiens, UniProt P53667)
T6 construct: purchased Reaction Biology Europe

340 wild-type kinases [7] = molecular target: T7, 340 wild-type kinases (Homo sapiens, UniProt Q04759)
T7 construct: purchased Reaction Biology Europe

340 wild-type kinases [8] = molecular target: T8, 340 wild-type kinases (Homo sapiens, UniProt Q15208)
T8 construct: purchased Reaction Biology Europe

340 wild-type kinases [9] = molecular target: T9, 340 wild-type kinases (Homo sapiens, UniProt Q15303)
T9 construct: purchased Reaction Biology Europe

340 wild-type kinases [10] = molecular target: T10, 340 wild-type kinases (Homo sapiens, UniProt Q8TDX7)
T10 construct: purchased Reaction Biology Europe

340 wild-type kinases [11] = molecular target: T11, 340 wild-type kinases (Homo sapiens, UniProt Q9HBH9)
T11 construct: purchased Reaction Biology Europe

340 wild-type kinases [12] = molecular target: T12, 340 wild-type kinases (Homo sapiens, UniProt Q9UK32)
T12 construct: purchased Reaction Biology Europe

T10 sequence (Q8TDX7 whole entry): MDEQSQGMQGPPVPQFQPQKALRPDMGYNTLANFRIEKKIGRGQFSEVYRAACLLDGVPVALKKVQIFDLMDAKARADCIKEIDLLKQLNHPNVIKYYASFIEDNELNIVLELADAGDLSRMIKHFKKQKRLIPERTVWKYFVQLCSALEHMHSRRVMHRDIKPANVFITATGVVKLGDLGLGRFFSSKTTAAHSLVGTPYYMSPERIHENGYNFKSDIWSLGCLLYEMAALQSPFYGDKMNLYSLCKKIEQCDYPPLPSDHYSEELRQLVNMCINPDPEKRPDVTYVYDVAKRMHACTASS
T3 sequence (O95819 whole entry): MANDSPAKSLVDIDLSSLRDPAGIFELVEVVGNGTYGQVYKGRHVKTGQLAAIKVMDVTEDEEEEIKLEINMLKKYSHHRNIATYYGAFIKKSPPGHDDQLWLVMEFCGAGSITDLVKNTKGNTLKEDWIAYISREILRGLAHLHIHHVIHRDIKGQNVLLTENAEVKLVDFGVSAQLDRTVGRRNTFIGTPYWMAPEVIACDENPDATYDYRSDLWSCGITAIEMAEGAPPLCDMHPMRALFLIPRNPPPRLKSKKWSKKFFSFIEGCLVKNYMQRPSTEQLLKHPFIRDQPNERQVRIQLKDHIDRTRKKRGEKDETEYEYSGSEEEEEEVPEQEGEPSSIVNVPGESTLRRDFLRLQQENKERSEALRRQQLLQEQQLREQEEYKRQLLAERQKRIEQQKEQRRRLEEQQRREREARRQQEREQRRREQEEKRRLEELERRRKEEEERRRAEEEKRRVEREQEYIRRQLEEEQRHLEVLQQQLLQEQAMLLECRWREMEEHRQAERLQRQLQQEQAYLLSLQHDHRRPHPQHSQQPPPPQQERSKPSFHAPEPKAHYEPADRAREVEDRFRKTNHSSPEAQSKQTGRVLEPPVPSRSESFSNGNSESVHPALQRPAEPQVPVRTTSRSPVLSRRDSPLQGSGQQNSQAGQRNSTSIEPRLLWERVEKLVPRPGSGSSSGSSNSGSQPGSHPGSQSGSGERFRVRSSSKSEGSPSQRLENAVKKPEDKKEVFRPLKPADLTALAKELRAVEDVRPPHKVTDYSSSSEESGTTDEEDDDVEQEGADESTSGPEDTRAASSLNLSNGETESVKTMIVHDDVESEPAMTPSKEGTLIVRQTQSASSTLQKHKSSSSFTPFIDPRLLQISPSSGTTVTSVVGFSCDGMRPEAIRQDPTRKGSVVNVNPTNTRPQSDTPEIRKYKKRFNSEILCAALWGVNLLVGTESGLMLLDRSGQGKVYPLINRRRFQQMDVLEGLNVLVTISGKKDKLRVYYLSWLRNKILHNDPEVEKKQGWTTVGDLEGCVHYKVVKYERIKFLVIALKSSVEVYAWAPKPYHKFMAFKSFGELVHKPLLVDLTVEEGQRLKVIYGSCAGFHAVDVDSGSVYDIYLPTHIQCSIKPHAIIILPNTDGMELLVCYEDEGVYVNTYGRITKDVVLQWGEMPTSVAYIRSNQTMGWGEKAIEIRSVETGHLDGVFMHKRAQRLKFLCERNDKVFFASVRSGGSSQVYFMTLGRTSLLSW
T9 sequence (Q15303 26-1308): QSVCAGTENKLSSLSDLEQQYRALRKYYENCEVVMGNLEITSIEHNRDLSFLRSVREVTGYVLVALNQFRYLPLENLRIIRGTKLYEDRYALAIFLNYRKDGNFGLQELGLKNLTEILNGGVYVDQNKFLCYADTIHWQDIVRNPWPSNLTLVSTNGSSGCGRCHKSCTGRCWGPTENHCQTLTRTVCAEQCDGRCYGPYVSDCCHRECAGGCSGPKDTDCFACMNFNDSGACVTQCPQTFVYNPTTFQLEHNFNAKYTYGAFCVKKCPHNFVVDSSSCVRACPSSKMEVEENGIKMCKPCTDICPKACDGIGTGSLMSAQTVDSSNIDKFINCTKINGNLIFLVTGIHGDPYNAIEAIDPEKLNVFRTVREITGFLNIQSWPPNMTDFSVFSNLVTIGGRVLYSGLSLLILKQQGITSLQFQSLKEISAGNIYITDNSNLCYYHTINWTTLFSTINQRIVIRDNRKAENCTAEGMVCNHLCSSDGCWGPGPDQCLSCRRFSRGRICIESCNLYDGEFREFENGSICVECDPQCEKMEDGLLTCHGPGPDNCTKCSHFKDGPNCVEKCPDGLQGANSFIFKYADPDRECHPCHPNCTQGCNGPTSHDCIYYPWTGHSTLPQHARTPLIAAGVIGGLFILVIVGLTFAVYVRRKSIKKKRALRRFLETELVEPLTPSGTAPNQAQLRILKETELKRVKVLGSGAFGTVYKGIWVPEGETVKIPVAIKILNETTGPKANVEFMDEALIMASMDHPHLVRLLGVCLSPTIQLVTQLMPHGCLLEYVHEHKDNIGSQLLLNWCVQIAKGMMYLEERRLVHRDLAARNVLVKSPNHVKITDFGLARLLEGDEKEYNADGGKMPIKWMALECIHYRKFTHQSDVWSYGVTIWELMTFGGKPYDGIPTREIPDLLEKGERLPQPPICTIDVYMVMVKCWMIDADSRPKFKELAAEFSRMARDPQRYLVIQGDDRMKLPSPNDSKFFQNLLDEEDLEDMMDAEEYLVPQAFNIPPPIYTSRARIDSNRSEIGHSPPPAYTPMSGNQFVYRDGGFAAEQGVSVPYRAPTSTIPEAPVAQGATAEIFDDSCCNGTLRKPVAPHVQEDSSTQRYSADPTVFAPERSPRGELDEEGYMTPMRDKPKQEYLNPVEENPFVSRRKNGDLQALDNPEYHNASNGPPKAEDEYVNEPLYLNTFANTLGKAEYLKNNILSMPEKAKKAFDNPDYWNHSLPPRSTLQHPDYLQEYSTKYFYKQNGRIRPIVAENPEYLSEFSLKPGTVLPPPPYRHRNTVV
T11 sequence (Q9HBH9 whole entry): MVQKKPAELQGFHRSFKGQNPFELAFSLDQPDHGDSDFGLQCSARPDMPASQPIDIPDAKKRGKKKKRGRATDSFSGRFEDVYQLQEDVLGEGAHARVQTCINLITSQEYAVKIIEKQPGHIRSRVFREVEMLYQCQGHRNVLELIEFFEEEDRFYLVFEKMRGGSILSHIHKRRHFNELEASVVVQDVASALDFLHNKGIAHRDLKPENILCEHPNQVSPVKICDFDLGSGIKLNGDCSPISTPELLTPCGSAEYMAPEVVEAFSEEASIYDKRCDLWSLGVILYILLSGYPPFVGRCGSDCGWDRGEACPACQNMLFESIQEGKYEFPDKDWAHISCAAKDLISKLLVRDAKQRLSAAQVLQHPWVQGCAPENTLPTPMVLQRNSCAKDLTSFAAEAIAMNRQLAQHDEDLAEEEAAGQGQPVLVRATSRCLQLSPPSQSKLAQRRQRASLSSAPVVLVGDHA
T6 sequence (P53667 whole entry): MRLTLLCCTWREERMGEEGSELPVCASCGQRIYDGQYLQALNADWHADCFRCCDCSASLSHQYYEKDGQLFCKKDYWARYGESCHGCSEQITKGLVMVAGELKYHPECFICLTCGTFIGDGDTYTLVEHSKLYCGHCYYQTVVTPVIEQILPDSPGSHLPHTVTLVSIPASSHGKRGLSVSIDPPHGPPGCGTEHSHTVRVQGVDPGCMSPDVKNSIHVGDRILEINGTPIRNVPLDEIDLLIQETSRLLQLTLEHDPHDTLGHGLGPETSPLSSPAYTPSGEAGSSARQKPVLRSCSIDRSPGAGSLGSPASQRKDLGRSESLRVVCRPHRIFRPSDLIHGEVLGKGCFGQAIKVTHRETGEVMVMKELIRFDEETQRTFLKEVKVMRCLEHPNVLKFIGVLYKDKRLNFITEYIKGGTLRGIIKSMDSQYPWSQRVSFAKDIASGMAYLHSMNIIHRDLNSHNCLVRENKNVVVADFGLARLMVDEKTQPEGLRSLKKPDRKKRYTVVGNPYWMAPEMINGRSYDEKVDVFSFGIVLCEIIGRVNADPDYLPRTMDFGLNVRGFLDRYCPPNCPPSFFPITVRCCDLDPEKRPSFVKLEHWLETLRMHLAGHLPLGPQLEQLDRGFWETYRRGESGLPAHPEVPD
T2 sequence (O75716 whole entry): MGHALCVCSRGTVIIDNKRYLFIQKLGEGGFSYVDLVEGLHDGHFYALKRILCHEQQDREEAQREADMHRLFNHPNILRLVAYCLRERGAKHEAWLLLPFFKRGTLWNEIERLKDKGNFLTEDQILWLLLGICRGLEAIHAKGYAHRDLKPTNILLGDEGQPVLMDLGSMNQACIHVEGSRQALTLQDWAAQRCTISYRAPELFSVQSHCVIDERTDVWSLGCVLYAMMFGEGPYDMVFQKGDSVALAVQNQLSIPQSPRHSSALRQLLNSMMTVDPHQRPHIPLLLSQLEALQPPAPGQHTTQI
T8 sequence (Q15208 whole entry): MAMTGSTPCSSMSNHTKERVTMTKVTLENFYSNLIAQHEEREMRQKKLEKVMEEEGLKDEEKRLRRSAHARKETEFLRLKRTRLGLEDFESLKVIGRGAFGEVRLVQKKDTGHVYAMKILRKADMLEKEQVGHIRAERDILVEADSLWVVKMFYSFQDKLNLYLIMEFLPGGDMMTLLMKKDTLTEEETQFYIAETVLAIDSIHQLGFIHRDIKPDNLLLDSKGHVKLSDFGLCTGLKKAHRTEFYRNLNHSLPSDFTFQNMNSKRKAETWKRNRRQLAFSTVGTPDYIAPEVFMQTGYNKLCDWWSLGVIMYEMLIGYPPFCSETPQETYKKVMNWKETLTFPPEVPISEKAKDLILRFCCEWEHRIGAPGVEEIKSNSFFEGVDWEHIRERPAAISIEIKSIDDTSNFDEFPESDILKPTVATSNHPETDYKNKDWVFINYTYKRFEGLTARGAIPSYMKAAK

Q: With `CNC(=O)c1ccc2c(c1)C(=O)c1ccc(Nc3ccc(F)c(NC(=O)C4CC4)c3)cc1CC2` [Compound 2015] as the compound, how does the remaining activity at 0.2 µM (340 wild-type kinases [1]; 0.2 µM 2015, read-out: CHK1 residual activity) read?
A: 88.2%

Q: And the remaining activity at 1 µM (340 wild-type kinases [1]; 1 µM 2015, read-out: CHK1 residual activity)?
A: 87.9%

Q: And the remaining activity at 0.2 µM (340 wild-type kinases [1]; CHK1, 0.2 µM, read-out: residual activity)?
A: 88.2%

Q: And the remaining activity at 1 µM (340 wild-type kinases [1]; CHK1, 1 µM, read-out: residual activity)?
A: 87.8%

Q: What about the remaining activity at 0.2 µM (340 wild-type kinases [2]; 0.2 µM 2015, read-out: TSF1 residual activity) of the same compound?
A: 95.7%

Q: What about the remaining activity at 1 µM (340 wild-type kinases [2]; 1 µM 2015, read-out: TSF1 residual activity) of the same compound?
A: 85.7%

Q: What about the remaining activity at 0.2 µM (340 wild-type kinases [2]; TSF1, 0.2 µM, read-out: residual activity) of the same compound?
A: 95.7%

Q: What about the remaining activity at 1 µM (340 wild-type kinases [2]; TSF1, 1 µM, read-out: residual activity) of the same compound?
A: 85.7%

Q: And the remaining activity at 0.2 µM (340 wild-type kinases [3]; 0.2 µM 2015, read-out: MAP4K4 residual activity)?
A: 90.2%

Q: And the remaining activity at 1 µM (340 wild-type kinases [3]; 1 µM 2015, read-out: MAP4K4 residual activity)?
A: 81.8%

Q: What about the remaining activity at 0.2 µM (340 wild-type kinases [3]; MAP4K4, 0.2 µM, read-out: residual activity) of the same compound?
A: 90.2%

Q: What about the remaining activity at 1 µM (340 wild-type kinases [3]; MAP4K4, 1 µM, read-out: residual activity) of the same compound?
A: 81.8%

Q: What about the remaining activity at 0.2 µM (340 wild-type kinases [4]; 0.2 µM 2015, read-out: EPHA3 residual activity) of the same compound?
A: 100%

Q: What about the remaining activity at 1 µM (340 wild-type kinases [4]; 1 µM 2015, read-out: EPHA3 residual activity) of the same compound?
A: 96.4%

Q: What about the remaining activity at 0.2 µM (340 wild-type kinases [4]; EPHA3, 0.2 µM, read-out: residual activity) of the same compound?
A: 100%

Q: And the remaining activity at 1 µM (340 wild-type kinases [4]; EPHA3, 1 µM, read-out: residual activity)?
A: 96.3%

Q: And the remaining activity at 0.2 µM (340 wild-type kinases [5]; 0.2 µM 2015, read-out: PLK1 residual activity)?
A: 94.2%

Q: What about the remaining activity at 1 µM (340 wild-type kinases [5]; 1 µM 2015, read-out: PLK1 residual activity) of the same compound?
A: 96.3%

Q: And the remaining activity at 0.2 µM (340 wild-type kinases [5]; PLK1, 0.2 µM, read-out: residual activity)?
A: 94.2%

Q: And the remaining activity at 1 µM (340 wild-type kinases [5]; PLK1, 1 µM, read-out: residual activity)?
A: 96.3%

Q: And the remaining activity at 0.2 µM (340 wild-type kinases [6]; 0.2 µM 2015, read-out: LIMK1 residual activity)?
A: 102%

Q: And the remaining activity at 1 µM (340 wild-type kinases [6]; 1 µM 2015, read-out: LIMK1 residual activity)?
A: 92.9%

Q: And the remaining activity at 0.2 µM (340 wild-type kinases [6]; LIMK1, 0.2 µM, read-out: residual activity)?
A: 102%

Q: What about the remaining activity at 1 µM (340 wild-type kinases [6]; LIMK1, 1 µM, read-out: residual activity) of the same compound?
A: 92.9%

Q: And the remaining activity at 0.2 µM (340 wild-type kinases [7]; 0.2 µM 2015, read-out: PKCtheta residual activity)?
A: 108%

Q: And the remaining activity at 1 µM (340 wild-type kinases [7]; 1 µM 2015, read-out: PKCtheta residual activity)?
A: 89.1%

Q: What about the remaining activity at 0.2 µM (340 wild-type kinases [7]; PKCtheta, 0.2 µM, read-out: residual activity) of the same compound?
A: 108%

Q: What about the remaining activity at 1 µM (340 wild-type kinases [7]; PKCtheta, 1 µM, read-out: residual activity) of the same compound?
A: 89%

Q: What about the remaining activity at 0.2 µM (340 wild-type kinases [8]; 0.2 µM 2015, read-out: NDR1 residual activity) of the same compound?
A: 91.9%

Q: What about the remaining activity at 1 µM (340 wild-type kinases [8]; 1 µM 2015, read-out: NDR1 residual activity) of the same compound?
A: 94%

Q: What about the remaining activity at 0.2 µM (340 wild-type kinases [8]; NDR1, 0.2 µM, read-out: residual activity) of the same compound?
A: 91.9%

Q: What about the remaining activity at 1 µM (340 wild-type kinases [8]; NDR1, 1 µM, read-out: residual activity) of the same compound?
A: 94%

Q: What about the remaining activity at 0.2 µM (340 wild-type kinases [9]; 0.2 µM 2015, read-out: ERBB4 residual activity) of the same compound?
A: 120%

Q: What about the remaining activity at 1 µM (340 wild-type kinases [9]; 1 µM 2015, read-out: ERBB4 residual activity) of the same compound?
A: 101%

Q: And the remaining activity at 0.2 µM (340 wild-type kinases [9]; ERBB4, 0.2 µM, read-out: residual activity)?
A: 120%

Q: And the remaining activity at 1 µM (340 wild-type kinases [9]; ERBB4, 1 µM, read-out: residual activity)?
A: 101%

Q: What about the remaining activity at 0.2 µM (340 wild-type kinases [10]; 0.2 µM 2015, read-out: NEK7 residual activity) of the same compound?
A: 119%

Q: What about the remaining activity at 1 µM (340 wild-type kinases [10]; 1 µM 2015, read-out: NEK7 residual activity) of the same compound?
A: 110%

Q: What about the remaining activity at 0.2 µM (340 wild-type kinases [10]; NEK7, 0.2 µM, read-out: residual activity) of the same compound?
A: 119%

Q: What about the remaining activity at 0.2 µM (340 wild-type kinases [11]; 0.2 µM 2015, read-out: MKNK2 residual activity) of the same compound?
A: 105%

Q: What about the remaining activity at 1 µM (340 wild-type kinases [11]; 1 µM 2015, read-out: MKNK2 residual activity) of the same compound?
A: 102%

Q: And the remaining activity at 0.2 µM (340 wild-type kinases [11]; MKNK2, 0.2 µM, read-out: residual activity)?
A: 105%

Q: What about the remaining activity at 1 µM (340 wild-type kinases [11]; MKNK2, 1 µM, read-out: residual activity) of the same compound?
A: 102%

Q: And the remaining activity at 0.2 µM (340 wild-type kinases [12]; 0.2 µM 2015, read-out: RPS6KA6 residual activity)?
A: 89.7%

Q: And the remaining activity at 1 µM (340 wild-type kinases [12]; 1 µM 2015, read-out: RPS6KA6 residual activity)?
A: 81.3%

Q: And the remaining activity at 0.2 µM (340 wild-type kinases [12]; RPS6KA6, 0.2 µM, read-out: residual activity)?
A: 89.7%

Q: And the remaining activity at 1 µM (340 wild-type kinases [12]; RPS6KA6, 1 µM, read-out: residual activity)?
A: 81.3%
